Experimental findings from patent US20230277508A1, “USE OF COMPOUND AS CYP2E1 INHIBITOR” (SHANGHAI LING XI BIOTECHNOLOGY DEVELOPMENT CO., LTD., priority 2020, published 2023) are described below.

In series [1] the test system is HepG2 liver cancer cells / macrophage RAW264.7. Nature of the series: HepG2 cells co-cultivated with RAW264.7 macrophage supernatant. Type of series: cell-based. Conditions: SMI0 intervention groups (especially 4 μmol/L) vs macrophage co-cultivation group, P<0.001. The method, then: Experimental method: A supernatant of a murine macrophage RAW264.7 was collected to establish a co-cultivation system with the HepG2 liver cancer cell, thereby simulating a macrophage inflammatory microenvironment of liver cancer. In the SMI0 intervention groups, SMI0 was added at different concentrations (0 μmol/L, 0.16 μmol/L, 0.8 μmol/L, 4 μmol/L, 20 μmol/L, and 100 μmol/L) while interleukin was added for induction. Culture supernatants of the SMI0 intervention groups were collected to prepare conditional media. HepG2 liver cancer cells in a logarithmic growth phase were adopted. The proliferation activity of HepG2 was determined by a CCK8 method, a migration ability of HepG2 was determined by wound-healing assay, and an apoptosis ability of HepG2 was determined by FCM.

Series [2] concerns DEN-induced liver fibrosis in rats. Nature of the series: DEN-induced rat liver fibrosis model. Type of series: in vivo, SD rat. As to conditions: 12 weeks, vs model group. As for the experimental part:
Experimental method: An SD rat liver damage model was constructed through intermittent intraperitoneal injection of DEN. A model group was injected intraperitoneally with DEN at 50 mg/kg twice a week in the first 4 weeks and then once a week in the 5th to 12th weeks. An SMI0 intervention group was divided into SMI0+DEN low-dose and high-dose groups and an SMI0 high-dose continuous administration group, where the SMI0+DEN low-dose and high-dose groups were intragastrically administered with the compound SMI0 at 30 mg/kg and 150 mg/kg 5 min before DEN administration each time, respectively; and the SMI0 high-dose continuous administration group was intragastrically administered with the compound SMI0 at 150 mg/kg every day from the 1st week to the 12th week. At the end of molding, blood was collected from the orbit, and plasma liver function indexes of rats were determined by an automatic biochemical analyzer (model group, n=10 rats; SMI0 compound low-dose group, n=21 rats; SMI0 compound+DEN high-dose group, n=28 rats; and SMI0 compound high-dose continuous administration group, n=24 rats).

In series [3] the test system is other CYP enzymes. Nature of the series: Determination of selectivity of a CYP2E1 inhibitor: other CYP enzymes. The class given is biochemical. As to conditions: mixed human liver microsome, probe substrates. The source says:
With a mixed liver microsome of a healthy individual as a research object, probe drugs CYP1A2, CYP2A6, CYP2B6, CYP2C8, CYP2C9, CYP2C19, CYP2D6, CYP2E1, and CYP3A4 were selected to determine an in vitro inhibitory effect of an inhibitor to be tested on the metabolism of the probe drugs CYP1A2, CYP2A6, CYP2B6, CYP2C8, CYP2C9, CYP2C19, CYP2D6, CYP2E1, and CYP3A4 for the mixed liver microsome of the healthy human, and the selectivity of the inhibitor to be tested for a CYP2E1 inhibitory effect was evaluated.
The CYP1A2 probe is 6.25 μM to 800 μM phenacetin or 27.5 μM to 12,520 μM caffeine; • the CYP2A6 probe is 0.156 μM to 20 μM coumarin or 12.5 μM to 2,000 μM nicotine; • the CYP2B6 probe is 7.8 μM to 500 μM bupropion or 0.25 mM to 30 mM cyclophosphamide; • the CYP2C8 probe is 2.5 μM to 80 μM paclitaxel or 0.125 μM to 128 μM amodiaquine; • the CYP2C9 probe is 31.25 μM to 2,000 μM tolbutamide or 0.1 μM to 200 μM diclofenac; • the CYP2C19 probe is 3.9 μM to 500 μM omeprazole or 1.95 μM to 1,000 μM mephenytoin; • the CYP2D6 probe is 0.625 μM to 96 μM dextromethorphan or 0.0195 μM to 80 μM propafenone; and • the CYP3A4 probe is 0.39 μM to 50 μM midazolam or 1.98 μM to 1,000 μM testosterone.
An incubation system in a total volume of 100 μL was adopted, including a substrate, an inhibitor of different concentrations, a liver microsomal protein, and PBS. […]
A general note: Microsomes from liver hold many membrane-bound enzymes, among them those of drug oxidation.

Series [4] concerns LPS-induced pulmonary fibrosis in mice. Nature of the series: LPS-induced mouse pulmonary fibrosis model. Type of series: in vivo, C57BL/6N mouse. As for the experimental part:
Experimental method: A C57BL/6N mouse pulmonary fibrosis model was established through intratracheal instillation with 8 mg/kg LPS. An SMI0 intervention group was divided into a low-dose group and a high-dose group, which were intragastrically administered with the compound SMI0 respectively at 30 mg/kg and 90 mg/kg every day from three days before modeling to the end of the 28-d modeling (control group, n=8; model group, n=8; and SMI0 compound high-dose group, n=8). At the end of the experiment, a body weight of mice in each group was recorded, blood was collected from the orbit, the mice were sacrificed, and lung tissues were collected and weighed. The left lungs were fixed in 4% formalin and subjected to HE and Masson staining, and the lung tissues were subjected to fibrosis grading and fibrosis and histological scoring to reflect a severity of pulmonary fibrosis.
Experimental method: An ammonium molybdate method and a microplate method were used to treat a mouse lung tissue homogenate, and changes of oxidative stress indexes CAT and GSH in the lung tissue of mice in each group were detected. Expression levels of […] and α-SMA in the mouse lung tissue were evaluated through immunohistochemical staining, and a positive area percentage was counted by Image-Pro Plus software. Expression levels of the epithelial cell marker E-cadherin, the apoptosis-associated protein Bax, and the anti-apoptotic protein Bcl-2 were detected by WB.

Where [5] appears, read: SMI0 intervention group vs model group, P<0.01.

On to `CC(=O)c1scnc1C` [SMI0], for which, in series [1], the “apoptosis ability of HepG2 liver cancer cells” value is “significantly enhanced”, the “migration ability of HepG2 liver cancer cells” value is “significantly weakened” and the “proliferation activity of HepG2 liver cancer cells” value is listed as “significantly weakened”. Besides, the liver coefficient entry in series [2] (SMI0 intervention group (30, 150 mg/kg before DEN; 150 mg/kg daily)) is on record as “reduced to varying degrees”. Moreover, in series [2] (SMI0 intervention group), the “Collagen I” value is recorded as “reduced to varying degrees”, the “liver fibrosis Ishark score” value is on record as “reduced to varying degrees”, the “liver fibrosis Masson staining area percentage” value was “reduced to varying degrees” and the α-SMA entry is “reduced to varying degrees”. In series [3], the “inhibitory effect for other CYP enzymes” value is recorded as “no significant inhibitory effect”. Moreover, the lung index entry in series [4] (SMI0 intervention group (30, 90 mg/kg ig daily, 28 d) vs model group) is “significantly reduced”. In addition, in series [4] (setting [5]), the “immunostaining-positive area percentage of TGF-β 1” value is listed as “significantly reduced”, the “immunostaining-positive area percentage of α-SMA” value is “significantly reduced” and the “oxidative stress index CAT level in lung tissue” value is reported as “significantly increased”. Moreover, the “pathological inflammatory cell infiltration” value in series [4] (SMI0 intervention group, 28 d) is “no obvious pathological inflammatory cell infiltration”. In series [4] (WB, SMI0 intervention group vs model group, P<0.001), the Bcl-2 level result is listed as “significantly increased”. Further, in series [4] (WB, SMI0 intervention group vs model group, P<0.01), the Bax level entry is listed as “significantly reduced”. Besides, the “epithelial cell marker E-cadherin level” value in series [4] (WB, SMI0 intervention group vs model group, P<0.05) is on record as “significantly increased”.
